One compound from patent publication US9018165B2, “Process for the synchronization of ovulation for timed breeding without heat detection” (priority 2003, dated 2015) can be followed below.

Molecules are shown by their SMILES.

In one assay the test system is mature postpartum sows. The assay is described as follows: Intravulvar injection at estrus detection with AI in mature postpartum sows (Example 2). Format: in vivo, swine. The following applies: 50 mcg intravulvar at first estrus detection. The protocol: Sows were assigned randomly in blocks of two to either control or to be injected intravulvar with 50 mcg of deslorelin in SAIB at the time of estrus detection for sows first detected in estrus in the a.m. and 12 hours later for those first detected in estrus in the p.m. Treated animals were bred AI upon detected estrus and again 24 hours later if still in estrus. Controls received a saline injection on first detected estrus behavior estrus detection and were bred according to the farm's normal procedures.

The test system of another assay is postpartum sows. The assay is described as follows: Timed injection 96 hours post-weaning and single timed insemination without estrus detection (Example 3). It is filed as in vivo, swine. Conditions: 50 mcg in SAIB 96 hours post-weaning; single insemination 28+/-2 hours later. As for the experimental part:
Approximately 170 postpartum sows were randomly divided into two equal groups comprised of controls and treated. Following weaning, the controls were detected for estrus and bred following the normal standard operating procedures for the farms on which they resided. The treated sows received a 50 mcg dose of deslorelin in SAIB at 96 hours post-weaning and were bred with a single insemination 28+/−2 hours later with no regard to estrus detection. The sows were examined for pregnancy by ultrasound at 21 days and slaughtered around 28 days post breeding. The entire reproductive tract was removed and corpora lutea and embryos were counted.

As for `CCNC(=O)[C@@H]1CCCN1C(=O)[C@H](CCCN=C(N)N)NC(=O)[C@H](CC(C)C)NC(=O)[C@@H](Cc1c[nH]c2ccccc12)NC(=O)[C@H](Cc1ccc(O)cc1)NC(=O)[C@H](CO)NC(=O)[C@H](Cc1c[nH]c2ccccc12)NC(=O)[C@H](Cc1cnc[nH]1)NC(=O)[C@@H]1CCC(=O)N1` [Deslorelin, deslorelin], the “difference in pregnancy rates, Control versus Treated (in words)” value in the assay with mature postpartum sows is “no significant difference”. In the assay on postpartum sows, the “Embryo Survival” value came to 64%.
